Experimental data reported in patent publication US20240425607A1, “IL-18BP ANTAGONIST ANTIBODIES AND THEIR USE IN MONOTHERAPY AND COMBINATION THERAPY IN THE TREATMENT OF CANCER” (Compugen Ltd., priority 2023, published 2024).

Key:
[1] = test system: MC38ova tumor-bearing mice; test: Peripheral effects in MC38ova tumor-bearing mice: anti-mIL18BP vs engineered mIL-18; format: in vivo; settings: single dose, varying concentrations of IL-15
Method: Nine days pre-inoculum, vials of MC38ova^dim cells were thawed into RPMI media containing 10% FBS, 1% Glutamax, 1% Sodium pyruvate, 1% HEPES, 1% NEAA, 0.01% 2-mercaptoethanol, 1% Penicillin-Streptomycin. Following centrifugation at 300×g for 8 min, cell pellet was resuspended, counted and seeded in a T175 flask. On days −7, −5 and −2, the cells were detached and re-seeded at 6-8*10^6 cells/T175 flask. On the day of inoculum, the cells were detached, centrifuged at 300×g for 10 min, filtered through […] cell strainer and resuspended in RPMI.
Experiments were performed in C57Bl/6 (female, 6-8 wk, Envigo). Mice were anesthetized with 10% Ketamine and 10% Xylazine mixture injected intraperitoneal. Next, mice were inoculated with MC38ova cells (1.2×10^6) subcutaneously to the right flank in 50 μl/mice.
At tumor volume of −120 mm^3 (day 9), mice were randomly assigned into treatment groups. Mice were treated with Synagis mouse IgG1, k isotype control 15 mg/kg (IP), anti-mIL18 bp 837 mIgG1 15 mg/kg (IP), PBS (SC), or engineered IL-18 (SC) 0.32 mg/kg. Treatments were injected twice a week for a total of 6 treatments. […] Mice were weighed every week. Mice were bled before the 4th treatment, 4 hours after the 4th treatment, and 24 hours after the 4th treatment. Serum was analyzed for presence of IFNg, TNFα, MCP1, IL6 by Cytometric Bead Array (CBA) Mouse Inflammation Kit (BD Cat. No. 552364). […]

[2] = test system: tumor infiltrating lymphocytes (TILs) co-cultured with MEL624 cells; test: rhIL-18 titration in TIL:MEL624 co-culture; format: cell-based, human; settings: 24 hr
Method: Human MEL624 cells were thawed and grown in DMEM with 10% FBS, 1% Glutamax, 1% Penicillin-Streptomycin Solution and 1% HEPES buffer. The cells were then seeded at 75 k cells/well in a 96 well plate in the assay medium (IMDM with 10% human serum, 1% Glutamax, 1% MEM eagle, 1% Sodium Pyruvate and 1% Penicillin-Streptomycin Solution) and incubated 1 hour in 37° C., 5% CO2 incubator before co-culture with human tumor infiltrating lymphocytes that were previously expanded using known melanoma antigens (TILs). Human TILs were thawed in full TIL media and 75 k cells/well were co-cultured with the MEL624 cells to create an effector: target ratio of 1:1. The co-cultured cells were then treated with rhIL-18 (1.23-300 ng/ml). Cells and all added solutions were prepared in full assay medium to a final volume of 200 μl/well. Plates were incubated for 24 hours in 37° C., 5% CO2 incubator, after which the supernatant was collected for cytokine secretion evaluation. All tests were done in triplicates.

| Substance | Spleens of mice treated with IL-15 vs controls [1] | Concentration at saturation of IFNγ secretion [2] [ng/mL] | Concentration that activates TILs (IFNγ secretion) [2] [ng/mL] |
| --- | --- | --- | --- |
| IL-15: recombinant IL15 given to mice as comparator cytokine [reference compound] | larger than controls | – | – |
| rhIL-18: recombinant human IL-18 (R&D systems) | – | ~100 | > 1 |
